Reference: patent publication US20210130617A1, “COLORING COMPOSITION, FILM, COLOR FILTER, METHOD FOR MANUFACTURING COLOR FILTER, SOLID-STATE IMAGING ELEMENT, AND IMAGE DISPLAY DEVICE” (FUJIFILM Corporation, priority 2018, published 2021)

Tests used:
[1] = Maximum absorption wavelength in chloroform (Cary 5000 spectrophotometer); assay type: physicochemical; conditions: wavelength range 400 to 800 nm
Experimental: In addition, the maximum absorption wavelength was obtained by dissolving 50 mg of each compound in 200 mL of chloroform, adding chloroform to 2 mL of this solution so as to be 200 mL, and measuring the absorbance of the solution in a wavelength range of 400 to 800 nm using Cary 5000 UV-Vis-NIR spectrophotometer (manufactured by Agilent Technologies, Inc.).

[2] = Solubility in PGMEA at 25° C. (visual check of insoluble matters); assay type: physicochemical
Source text: The evaluation standard is as follows.

Row | SMILES | Maximum absorption wavelength [1] [nm] | Solubility [2] | solubility at 15 min ([2]; organic solvent or mixture, thermodynamic from solid) [µg/mL]
1 | Cc1ccc(N(c2ccc(C3=C([O-])C(=C4C=CC(=[N+](c5ccc(C)cc5)c5cccc6ccccc56)C=C4O)C3=O)c(O)c2)c2cccc3ccccc23)cc1 [SQ-2] | 675 | B (solubility is more than 20 mg/L and 25 mg or less.) | 
2 | Cc1cccc(N(c2ccc(C3=C([O-])C(=C4C=CC(=[N+](c5cccc(C)c5)c5cccc6ccccc56)C=C4O)C3=O)c(O)c2)c2cccc3ccccc23)c1 [SQ-3] | 675 | B (solubility is more than 20 mg/L and 25 mg or less.) | 
3 | Cc1ccccc1N(c1ccc(C2=C([O-])C(=C3C=CC(=[N+](c4ccccc4C)c4cccc5ccccc45)C=C3O)C2=O)c(O)c1)c1cccc2ccccc12 [SQ-4] | 675 | B (solubility is more than 20 mg/L and 25 mg or less.) | 
4 | Cc1ccc(N(c2ccc(C3=C([O-])C(=C4C=CC(=[N+](c5ccc(C)cc5C)c5cccc6ccccc56)C=C4O)C3=O)c(O)c2)c2cccc3ccccc23)c(C)c1 [SQ-7] | 680 | C (solubility is more than 25 mg/L and 30 mg or less.) | 
5 | CCc1ccc(N(c2ccc(C3=C([O-])C(=C4C=CC(=[N+](c5ccc(CC)cc5)c5cccc6ccccc56)C=C4O)C3=O)c(O)c2)c2cccc3ccccc23)cc1 [SQ-13] | 675 | B (solubility is more than 20 mg/L and 25 mg or less.) | 
6 | CC(C)(C)c1ccc(N(c2ccc(C3=C([O-])C(=C4C=CC(=[N+](c5ccc(C(C)(C)C)cc5)c5cccc6ccccc56)C=C4O)C3=O)c(O)c2)c2cccc3ccccc23)cc1 [SQ-14] | 670 | C (solubility is more than 25 mg/L and 30 mg or less.) | 
7 | CCOc1ccc(N(c2ccc(C3=C([O-])C(=C4C=CC(=[N+](c5ccc(OCC)cc5)c5cccc6ccccc56)C=C4O)C3=O)c(O)c2)c2cccc3ccccc23)cc1 [SQ-15] | 680 | B (solubility is more than 20 mg/L and 25 mg or less.) | 
8 | O=C1C(=C2C=CC(=[N+](c3ccco3)c3cccc4ccccc34)C=C2O)C([O-])=C1c1ccc(N(c2ccco2)c2cccc3ccccc23)cc1O [SQ-25] | 665 | B (solubility is more than 20 mg/L and 25 mg or less.) | 
9 | O=C1C(=C2C=CC(=[N+](c3cccc4ccccc34)c3cccc4ccccc34)C=C2O)C([O-])=C1c1ccc(N(c2cccc3ccccc23)c2cccc3ccccc23)cc1O [SQ-29] | 680 | A (solubility is 20 mg/L or less.) | 
10 | O=C1C(=C2C=CC(=[N+](c3ccccc3)c3cc(C(F)(F)F)cc(C(F)(F)F)c3)C=C2O)C([O-])=C1c1ccc(N(c2ccccc2)c2cc(C(F)(F)F)cc(C(F)(F)F)c2)cc1O [SQ-67] | 675 | C (solubility is more than 25 mg/L and 30 mg or less.) | 
11 | O=C1C(=C2C(O)=CC(=[N+](c3ccc(Cl)cc3)c3cccc4ccccc34)C=C2O)C([O-])=C1c1c(O)cc(N(c2ccc(Cl)cc2)c2cccc3ccccc23)cc1O [SQ-74] | 665 | A (solubility is 20 mg/L or less.) | 
12 | O=C1C(=C2C(O)=CC(=[N+](c3cccc4ccccc34)c3cccc4ccccc34)C=C2O)C([O-])=C1c1c(O)cc(N(c2cccc3ccccc23)c2cccc3ccccc23)cc1O [SQ-77] | 670 | A (solubility is 20 mg/L or less.) | 
13 | O=C1C(=C2C(O)=CC(=[N+](c3ccccc3)c3ccc4ccccc4c3)C=C2O)C([O-])=C1c1c(O)cc(N(c2ccccc2)c2ccc3ccccc3c2)cc1O [SQ-96] | 690 | A (solubility is 20 mg/L or less.) | 
14 | CCOC1=CC(=[N+](c2ccccc2)c2cccc3ccccc23)C=CC1=C1C(=O)C(c2ccc(N(c3ccccc3)c3cccc4ccccc34)cc2OCC)=C1[O-] [SQ-101] | 690 | A (solubility is 20 mg/L or less.) | 
15 | O=C1C(=C2C(O)=CC(=[N+](c3ccccc3)c3cccc4ccccc34)c3ccccc32)C([O-])=C1c1c(O)cc(N(c2ccccc2)c2cccc3ccccc23)c2ccccc12 [SQ-104] | 695 | A (solubility is 20 mg/L or less.) | 
16 | O=C1C(=C2C=CC(=[N+](c3ccccc3-c3ccccc3)c3ccccc3[N+](=O)[O-])C=C2O)C([O-])=C1c1ccc(N(c2ccccc2-c2ccccc2)c2ccccc2[N+](=O)[O-])cc1O [SQ-108] | 685 | A (solubility is 20 mg/L or less.) | 
17 | O=C1C(=C2C=CC(=[N+](c3ccccc3-c3ccccc3)c3ccccc3-c3ccccc3)C=C2O)C([O-])=C1c1ccc(N(c2ccccc2-c2ccccc2)c2ccccc2-c2ccccc2)cc1O [SQ-110] | 675 | A (solubility is 20 mg/L or less.) | 
18 | CCCCN(CCCC)c1cc(O)c(C2=C([O-])C(=C3C(O)=CC(=[N+](CCCC)CCCC)C=C3O)C2=O)c(O)c1 [SQ-R1, reference compound] | 655 |  | > 30

Second part, the compound after the results:

Row | Maximum absorption wavelength [1] [nm] | Solubility [2] | solubility at 15 min ([2]; organic solvent or mixture, thermodynamic from solid) [µg/mL] | SMILES
19 | 670 | A (solubility is 20 mg/L or less.) |  | O=C1C(=C2C=CC(=[N+](c3ccccc3)c3cccc4ccccc34)C=C2O)C([O-])=C1c1ccc(N(c2ccccc2)c2cccc3ccccc23)cc1O [SQ-1]
20 | 665 | A (solubility is 20 mg/L or less.) |  | O=C1C(=C2C=CC(=[N+](c3ccc(Cl)cc3)c3cccc4ccccc34)C=C2O)C([O-])=C1c1ccc(N(c2ccc(Cl)cc2)c2cccc3ccccc23)cc1O [SQ-12]
21 | 660 | A (solubility is 20 mg/L or less.) |  | N#Cc1ccc(N(c2ccc(C3=C([O-])C(=C4C=CC(=[N+](c5ccc(C#N)cc5)c5cccc6ccccc56)C=C4O)C3=O)c(O)c2)c2cccc3ccccc23)cc1 [SQ-16]
22 | 675 | A (solubility is 20 mg/L or less.) |  | CSc1ccc(N(c2ccc(C3=C([O-])C(=C4C=CC(=[N+](c5ccc(SC)cc5)c5cccc6ccccc56)C=C4O)C3=O)c(O)c2)c2cccc3ccccc23)cc1 [SQ-17]
23 | 685 | A (solubility is 20 mg/L or less.) |  | CN(C)c1ccc(N(c2ccc(C3=C([O-])C(=C4C=CC(=[N+](c5ccc(N(C)C)cc5)c5cccc6ccccc56)C=C4O)C3=O)c(O)c2)c2cccc3ccccc23)cc1 [SQ-18]
24 | 670 | A (solubility is 20 mg/L or less.) |  | CC(=O)Nc1ccc(N(c2ccc(C3=C([O-])C(=C4C=CC(=[N+](c5ccc(NC(C)=O)cc5)c5cccc6ccccc56)C=C4O)C3=O)c(O)c2)c2cccc3ccccc23)cc1 [SQ-19]
